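Growth conditions: 96-well plates. Treatment: test compound, 48 hours, 5 concentrations. Analysis: linear interpolation between bracketing concentrations; unreached endpoints set to highest concentration. Definition used: TGI = concentration required for complete inhibition of growth.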

This note sets out measurements from PubChem BioAssay (NCI).

Common to all, as to assay: NCI anticancer screen, dose series, 48 h
In assay [1] the test system is SN12C renal.
In assay [2] the test system is RXF 393 renal.
The subject of assay [3] is MDA-N.
Assay [4] deals with SK-MEL-28 melanoma.
The test system of assay [5] is A498 renal.
Assay [6] deals with HT29 colon.
Assay [7] relates to CAKI-1 renal.
Assay [8] deals with SF-295 CNS.
The test system of assay [9] is HOP-92 NSCLC.
The test system of assay [10] is MCF7 breast.

Turning to `O=[N+]([O-])c1nccn1CCCNCCCn1ccnc1[N+](=O)[O-]`, the TGI in [1], in [2], in [3], in assay [4], in assay [5] and in [6] was greater than 100 µM each time. For the same molecule, the TGI in assay [7], in assay [8], in [9] and in assay [10] was greater than 100 µM in each case.
In the case of `NC(N)=NS(=O)(=O)c1ccc(NC(=O)c2ccc3[nH]c4ccccc4c(=O)c3c2)cc1`, the TGI in assay [1], in assay [2], in assay [3], in assay [4], in assay [6] and in [7] was greater than 100 µM in each case. Moreover, the TGI in [8], in assay [9] and in assay [10] was greater than 100 µM throughout.
Take `COCCOCCOCCOc1ccc(C(C#N)N(CCc2ccccc2)C(=O)c2cc(C(=O)N(CCc3ccccc3)C(C#N)c3ccc(OCCOCCOCCOC)cc3)cc(C(=O)N(CCc3ccccc3)C(C#N)c3ccc(OCCOCCOCCOC)cc3)c2)cc1` (stereo not given): the TGI in [1], in assay [2], in assay [3], in assay [4], in [5] and in assay [6] was greater than 100 µM each time. Further, the TGI in assay [8], in assay [9] and in [10] was greater than 100 µM throughout.
Consider `CC1(C)CN=C(Nc2ccc(F)c(F)c2)S1`, for which the TGI in [1], in assay [2], in assay [3], in assay [4], in [6] and in assay [7] was greater than 100 µM each time. For the same molecule, the TGI in assay [8] was greater than 100 µM; in assay [9] it was 90.4 µM; in assay [10], greater than 100 µM.
Take `CC(=O)Oc1c(C)c2c(c3ccccc13)OC(C)(C)C2`: the TGI in assay [1] was 34.5 µM; in assay [2] it was 35.9 µM; in [3], 24.9 µM; in assay [4], 32.9 µM; in [5], 38.2 µM; in assay [6] it was 35 µM. The TGI in assay [7] was determined as 40.3 µM; in assay [8] it was 30.9 µM; in assay [9], 31.9 µM; in assay [10], 35.4 µM.
With `NC(=O)C(Nc1ccc(Cl)cc1)c1cc2cc(Br)ccc2nc1Cl` (stereo not given), the TGI in assay [1], in assay [2], in assay [3], in assay [4], in assay [5] and in [6] was greater than 50 µM in each case. Also, the TGI in assay [7], in assay [8], in [9] and in [10] was greater than 50 µM throughout.
With `CCN(CC)COC(=S)S`, the TGI is greater than 100 µM in assay [1]; greater than 56.1 µM in assay [2]; greater than 100 µM in [3]; greater than 100 µM in assay [4]; greater than 100 µM in assay [5]; greater than 100 µM in assay [6]. Also, the TGI in assay [7], in assay [8], in [9] and in assay [10] was greater than 100 µM in each case.
Consider `N#Cc1c(N)c(C#N)c2c(c1-c1ccc(Cl)cc1)COc1ccccc1-2`, for which the TGI was 31 µM in assay [1]; 30.4 µM in assay [2]; 66.4 µM in assay [3]; 37.4 µM in assay [4]; 37.7 µM in assay [5]; 40.3 µM in assay [6]. In addition, the TGI in [9] is 45.5 µM; in [10], greater than 100 µM.
Consider `Oc1ccc(-c2cn3cc(C(F)(F)F)ccc3n2)cc1`, for which the TGI in [1], in [2], in assay [3], in assay [4], in [5] and in assay [6] was greater than 100 µM each time. For the same molecule, the TGI in [7], in assay [8], in [9] and in assay [10] was greater than 100 µM each time.
Consider `CN(C)Cc1cc(N=Nc2ccc(Cl)cc2)ccc1O`, for which the TGI in assay [1] came out at 33.1 µM; in [2], 27.9 µM; in assay [3], 42.9 µM; in [4], 29.6 µM; in assay [5], 31.8 µM; in assay [6] it was 26.4 µM. The TGI in assay [7] stood at 32.2 µM; in assay [8] it was 30.9 µM; in [9], 34.6 µM; in [10], 31.4 µM.
As to `CC1OC(O[C@H]2CC[C@]3(C=O)[C@H]4CC[C@]5(C)[C@H](C6=CC(=O)OC6)CC[C@]5(O)[C@@H]4C=C[C@]3(O)C2)CC(O)C1O` (stereo not given in full), the TGI in assay [1] was 0.464 µM; in assay [2], 0.193 µM; in assay [3], 0.807 µM; in assay [4] it was 1.7 µM; in assay [5], 0.611 µM; in assay [6] it was 1.5 µM. Moreover, the TGI in [7] was determined as 0.428 µM; in assay [8] it was 0.489 µM; in [9], 2.62 µM; in [10], 2.71 µM.
Take `O=C1NC(S(=O)(=O)O)=NNC12c1ccccc1-c1ccccc12`: the TGI in [1], in assay [2], in [3], in assay [4], in [6] and in assay [7] was greater than 10 µM throughout. Moreover, the TGI in assay [8], in [9] and in [10] was greater than 10 µM throughout.
As for `COc1ccc(N2C(=O)/C(=C\c3cccc(Oc4ccccc4)c3)SC2c2ccccc2)cc1` (stereo not given), the TGI in assay [1], in assay [2], in assay [3], in assay [4], in assay [5] and in assay [7] was greater than 100 µM each time. Further, the TGI in assay [8], in assay [9] and in assay [10] was greater than 100 µM in each case.
`COc1ccc2nc3n(c2c1)C(c1c(Cl)cccc1Cl)SC3` (stereo not given): the TGI in assay [1], in assay [2], in assay [3], in assay [4], in assay [5] and in assay [7] was greater than 100 µM throughout. In addition, the TGI in [8], in assay [9] and in assay [10] was greater than 100 µM each time.
Take `O=[N+]([O-])c1cccc2nc3ccccc3c(NCCCN3CCCCC3)c12`: the TGI in [1] was 0.0443 µM; in [2], 0.0246 µM; in assay [3] it was 0.0217 µM; in assay [5], less than 0.0219 µM; in [6], 0.326 µM; in assay [7] it was 0.496 µM. In addition, the TGI in [8] was determined as 0.0605 µM; in assay [9], 0.0434 µM; in [10], 0.11 µM.
Turning to `Cn1c(-c2ccc(N=NNc3ccc(-c4n[nH]c(=S)n4C)cc3)cc2)n[nH]c1=S`, the TGI was greater than 100 µM in assay [1]; 32.6 µM in assay [2]; greater than 100 µM in assay [3]; greater than 100 µM in assay [4]; greater than 100 µM in [5]; greater than 100 µM in assay [6]. The TGI in assay [8] is greater than 100 µM; in assay [9], 8.84 µM; in assay [10] it was greater than 100 µM.
With `CC(=O)OCC(OC(C)=O)C(OC(C)=O)C(OC(C)=O)C(/C=N\Nc1nc2ccccc2c(=O)[nH]1)=N/Nc1nc2ccccc2c(=O)[nH]1` (stereo not given), the TGI in [1], in assay [2], in [3], in [4], in assay [6] and in assay [7] was greater than 100 µM each time. The TGI in assay [8], in assay [9] and in assay [10] was greater than 100 µM in each case.
Consider `COC(=O)c1c2c(cc3c1CC1(Cc4cc5c(cc4C1)CCC5)C3)CCC2`, for which the TGI in [2], in assay [3], in assay [4], in [5], in [6] and in assay [7] was greater than 100 µM each time. Further, the TGI in assay [8], in assay [9] and in assay [10] was greater than 100 µM each time.
Turning to `C=C1CC(COc2ccc3c(C)cc(=O)oc3c2)(c2ccccc2)OC1=O` (stereo not given), the TGI in assay [1] amounted to 21.1 µM; in assay [3], 5.78 µM; in assay [4], 8.37 µM; in assay [5], 14.1 µM; in assay [6], 2.96 µM; in assay [7], 3.55 µM. Moreover, the TGI in assay [8] turned out to be 23 µM; in assay [9], 1.56 µM; in [10] it was 2.71 µM.
In the case of `COc1ccc(/C=C2/CCS(=O)(=O)c3ccc(C)cc3C2=O)cc1OC`, the TGI was determined as 73.9 µM in assay [1]; 29.6 µM in assay [2]; 49.5 µM in assay [3]; 56.5 µM in assay [4]; 27.6 µM in [6]; 47.5 µM in [7]. In addition, the TGI in assay [8] is 36 µM; in assay [9], 9.55 µM; in assay [10] it was greater than 100 µM.
Consider `Cc1cc(C)n(C(=O)CSc2nnc(SCC(=O)n3nc(C)cc3C)s2)n1`, for which the TGI in [1], in [2], in assay [3], in assay [4], in assay [5] and in assay [7] was greater than 100 µM each time. In addition, the TGI in assay [8], in [9] and in assay [10] was greater than 100 µM throughout.
